The values below come from ChEMBL document CHEMBL1649532, “Trypanocidal activity of 8-methyl-5'-{[(Z)-4-aminobut-2-enyl]-(methylamino)}adenosine (Genz-644131), an adenosylmethionine decarboxylase inhibitor” (Antimicrob Agents Chemother, 2009).

In brackets after ≈: the same amount, converted by molar mass. Activity calls are given as the source filed them. The rule behind the calls is not given here.

In assay [1] the test system is Trypanosoma brucei rhodesiense. Briefly: Trypanocidal activity against Trypanosoma brucei rhodesiense KETRI1992 infected in mouse assessed as average survival time at 2 mg/kg, ip QD administered 24 hrs postinfection. It counts as functional. The following applies: route intraperitoneal.
Assay [2] has as its system Trypanosoma brucei rhodesiense. In words: Trypanocidal activity against Trypanosoma brucei rhodesiense KETRI2002 infected in mouse assessed as protection against trypanosomal infection at 2 mg/kg, ip QD administered 24 hrs postinfection. Details: dose 2 mg/kg. The class given is functional, organism-based.
The test system of assay [3] is Trypanosoma brucei brucei. Briefly: Trypanocidal activity against Trypanosoma brucei brucei EATRO infected in mouse assessed as mean survival time at 2 mg/kg, ip QD for 4 days. The class given is functional. The conditions noted are these: route intraperitoneal.
The subject of assay [4] is Trypanosoma brucei rhodesiense. In words: Trypanocidal activity against Trypanosoma brucei rhodesiense KETRI1992 infected in mouse assessed as protection against trypanosomal infection at 2 mg/kg, ip QD administered 24 hrs postinfection. It counts as functional, organism-based. Details: dose 2 mg/kg.
Assay [5] relates to Trypanosoma brucei rhodesiense. Briefly: Trypanocidal activity against Trypanosoma brucei rhodesiense KETRI243 infected in mouse assessed as protection against trypanosomal infection at 2 mg/kg, ip QD administered 24 hrs postinfection. It counts as functional, organism-based. Details: dose 2 mg/kg.
In assay [6] the test system is Trypanosoma brucei rhodesiense. Briefly: Trypanocidal activity against Trypanosoma brucei rhodesiense KETRI243 infected in mouse assessed as average survival time at 2 mg/kg, ip QD administered 24 hrs postinfection. The following applies: route intraperitoneal. It counts as functional.
Assay [7] relates to Trypanosoma brucei brucei. In words: Trypanocidal activity against Trypanosoma brucei brucei EATRO after 48 hrs. The class given is functional, organism-based.
In assay [8] the test system is Trypanosoma brucei rhodesiense. Briefly: Ratio of Kinact to Kiapp for Trypanosoma brucei rhodesiense AdoMetDC.
The test system of assay [9] is Trypanosoma brucei rhodesiense. In words: Trypanocidal activity against Trypanosoma brucei rhodesiense KETRI2538 after 48 hrs. It counts as functional, organism-based. The following applies: KETRI2538, 48 h.
The subject of assay [10] is Trypanosoma brucei rhodesiense. In words: Trypanocidal activity against Trypanosoma brucei rhodesiense KETRI243 after 48 hrs. The class given is functional, organism-based. The following applies: KETRI243, 48 h.

On to `N=C(N)c1ccc(OCCCCCOc2ccc(C(=N)N)cc2)cc1` [PENTAMIDINE], for which the MST in [1] is 18 days; in [3] it was greater than 35 days; in assay [6], 11.6 days. Besides, in assay [2], the outcome was Active. The result in assay [4] and in [5] was inactive.
As for `CN(C/C=C\CN)C[C@H]1O[C@@H](n2cnc3c(N)ncnc32)[C@H](O)[C@@H]1O`, the figures for the IC50 in [7], in assay [9] and in [10] were 0.05 µg/mL (≈ 0.143 µM), 0.021 µg/mL (≈ 0.0601 µM) and 0.02 µg/mL (≈ 0.0572 µM), respectively. Further, the Activity in assay [8] was found to be 1.5 min⁻¹ M⁻¹.

For orientation: IC50 means the concentration that gives 50% inhibition. Low values mean greater potency, high ones weaker potency.
